Experimental data from US10172820B2, “Skin preparation composition for external use having excellent antiseptic ability” (AMOREPACIFIC CORPORATION, priority 2011, dated 2019).

Test: Skin irritation test (24 hour patch test)
Set-up: species or system human
Conditions: in vivo; for Average skin irritation score: human, 24 h
Experimental: The patch is applied to the upper part of the back of each panel, using 20 μL of the test ingredient on an IQ chamber (Chemotechique, […]). The patch is removed after 24 hours of application and a first evaluation is conducted in 30 more minutes. After 24 hours, a second evaluation is carried out. To determine the severity of the skin irritation of each specimen, a weighted grade is applied according to the severity of the positive reaction on the skin to calculate the average skin irritation score as given by the following Equation and determine the severity of the skin irritation from the specimen. […] Mild irritation Score≥5: Severe irritation

| Compound | Average skin irritation score (5 %) | Skin irritation, result in words | Average skin irritation score (4 %) | Average skin irritation score (1 %) |
| --- | --- | --- | --- | --- |
| CCCCCCCC(=O)OCC(O)CO (stereo not drawn) [Glyceryl caprylate, glyceryl caprylate] | 0.94 | almost no irritation | – | – |
| C=CCCCCCCCCC(=O)OCC(O)CO (stereo not drawn) [Glyceryl undecylenate, glyceryl undecylenate] | – | almost no irritation | 0.00 | – |
| COc1ccc(C(=O)O)cc1 [p-anisic acid] | – | almost no irritation | – | 0.94 |
